The record followed here is ChEMBL document CHEMBL4699537, “Chalcones as Modulators of Neutrophil Oxidative Burst under Physiological and High Glucose Conditions” (J Nat Prod, 2020).

Usually IC50 stands for the concentration that inhibits the measured activity by half. The term inhibition denotes how much of the control response was suppressed.

Data set [1] has as its system Neutrophil. As to the kind of experiment: Effect on cell viability in human neutrophils assessed as decrease in cell viability at 50 uM after 1 hr by Propidium staining based flow cytometric analysis.
Data set [2] is described as follows: Inhibition of PMA-induce ROS/RNS generation in human neutrophils measured up to 30 mins in presence of 5.5 mM glucose by luminol-amplified chemiluminescence method. It is filed as functional, tissue-based. Particulars: Neutrophil, 0.5 h.
A short description of data set [3]: Inhibition of PMA-induce ROS/RNS generation in human neutrophils measured up to 30 mins in presence of 30 mM glucose by luminol-amplified chemiluminescence method. The format is functional, tissue-based. To be noted: Neutrophil, 0.5 h.
Data set [4] deals with Neutrophil. As to the kind of experiment: Effect on cell viability in human neutrophils assessed as decrease in cell viability at 25 uM after 1 hr by Propidium staining based flow cytometric analysis. (In general: A flow cytometer gives signals particle by particle.)
Data set [5] can be described thus: Inhibition of PMA-induce ROS/RNS generation in human neutrophils at 25 uM measured up to 30 mins in presence of 5.5 mM glucose by luminol-amplified chemiluminescence method relative to control. It is filed as functional, Neutrophil. Particulars: time min <=30.
Data set [6] in a line: Inhibition of PMA-induce ROS/RNS generation in human neutrophils at 25 uM measured up to 30 mins in presence of 30 mM glucose by luminol-amplified chemiluminescence method relative to control. It is filed as functional, Neutrophil. Particulars: time min <=30.
The test system of data set [7] is Neutrophil. Kind of data set: Effect on cell viability in human neutrophils assessed as decrease in cell viability at 3.1 uM after 1 hr by Propidium staining based flow cytometric analysis.
Data set [8] is described as follows: Inhibition of PMA-induce ROS/RNS generation in human neutrophils at 3.1 uM measured up to 30 mins in presence of 5.5 mM glucose by luminol-amplified chemiluminescence method relative to control. Particulars: time min <=30. The format is functional, Neutrophil.
The nature of data set [9]: Inhibition of PMA-induce ROS/RNS generation in human neutrophils at 3.1 uM measured up to 30 mins in presence of 30 mM glucose by luminol-amplified chemiluminescence method relative to control. The format is functional, Neutrophil. To be noted: time min <=30.
A short description of data set [10]: Ratio of IC50 for inhibition of PMA-induce ROS/RNS generation in human neutrophils measured up to 30 mins in presence of 30 mM glucose to IC50 for inhibition of PMA-induce ROS/RNS generation in human neutrophils measured up to 30 mins in presence of 5.5 mM glucose. It is filed as functional, Neutrophil.
Data set [11] has as its system Neutrophil. Kind of data set: Effect on cell viability in human neutrophils assessed as decrease in cell viability at 12.5 uM after 1 hr by Propidium staining based flow cytometric analysis.
The nature of data set [12]: Inhibition of PMA-induce ROS/RNS generation in human neutrophils at 12.5 uM measured up to 30 mins in presence of 5.5 mM glucose by luminol-amplified chemiluminescence method relative to control. It is filed as functional, Neutrophil. To be noted: time min <=30.
The nature of data set [13]: Inhibition of PMA-induce ROS/RNS generation in human neutrophils at 12.5 uM measured up to 30 mins in presence of 30 mM glucose by luminol-amplified chemiluminescence method relative to control. The format is functional, Neutrophil. To be noted: time min <=30.
The test system of data set [14] is Neutrophil. As to the kind of experiment: Effect on cell viability in human neutrophils assessed as death cell at 100 uM in presence of 5.5 mM glucose after 1 hr by Propidium staining based flow cytometric analysis (reference value: 0.5 +/- 0.07 %).
Data set [15] deals with Neutrophil. Kind of data set: Effect on cell viability in human neutrophils assessed as death cell at 100 uM in presence of 30 mM glucose after 1 hr by Propidium staining based flow cytometric analysis (reference value: 0.8 +/- 0.13 %).
The subject of data set [16] is Neutrophil. Kind of data set: Effect on cell viability in human neutrophils assessed as decrease in cell viability at 100 uM after 1 hr by Propidium staining based flow cytometric analysis.
The nature of data set [17]: Inhibition of PMA-induce ROS/RNS generation in human neutrophils at 6.3 uM measured up to 30 mins in presence of 5.5 mM glucose by luminol-amplified chemiluminescence method relative to control. It is filed as functional, Neutrophil. To be noted: time min <=30.
Data set [18] relates to Neutrophil. Kind of data set: Effect on cell viability in human neutrophils assessed as decrease in cell viability at 6.3 uM after 1 hr by Propidium staining based flow cytometric analysis.
Data set [19] can be described thus: Inhibition of PMA-induce ROS/RNS generation in human neutrophils at 6.3 uM measured up to 30 mins in presence of 30 mM glucose by luminol-amplified chemiluminescence method relative to control. To be noted: time min <=30. It is filed as functional, Neutrophil.
Data set [20] is described as follows: Inhibition of PMA-induce NET production in human neutrophils at 50 uM incubated for 30 mins in presence of 30 mM glucose by SytoxGreen staining based fluorescence assay relative to control. It is filed as functional. Particulars: Neutrophil, 0.5 h.
Data set [21] deals with Neutrophil. Kind of data set: Inhibition of PMA-induce NET production in human neutrophils incubated for 30 mins in presence of 30 mM glucose by SytoxGreen staining based fluorescence assay. It is filed as functional, tissue-based.
For data set [22], the system named is Neutrophil. Kind of data set: Effect on cell viability in human neutrophils assessed as death cell at 6.3 uM in presence of 5.5 mM glucose after 1 hr by Propidium staining based flow cytometric analysis (reference value: 0.5 +/- 0.07 %).
The test system of data set [23] is Neutrophil. Kind of data set: Effect on cell viability in human neutrophils assessed as death cell at 6.3 uM in presence of 30 mM glucose after 1 hr by Propidium staining based flow cytometric analysis (reference value: 0.8 +/- 0.13 %).

With `O=C(/C=C/c1ccc(O)cc1)c1ccccc1` [4-HYDROXYCHALCONE], in data set [1], the Activity result was “Non-Toxic”. Further, the IC50 in [2] worked out at 8.8 µM; in data set [3], 11.6 µM.

`COc1ccc(/C=C/C(=O)c2ccccc2O)cc1`: the Activity result in data set [4] was “Non-Toxic”. For the same molecule, the Imax came to 50% in data set [5] and 32% in data set [6].

On to `COc1ccc(/C=C/C(=O)c2c(O)cc(OC)cc2OC)cc1` [FLAVOKAWAIN A], for which the Activity entry in data set [7] is “Non-Toxic”. Further, the Imax was determined as 13% in data set [8] and 19% in [9].

In the case of `COc1cccc(/C=C/C(=O)c2ccccc2O)c1`, the Activity entry in data set [4] is listed as “Non-Toxic”. Also, the IC50 came to 3 µM in data set [2] and 5.7 µM in data set [3]. In data set [10], the “Ratio IC50” value is 2.

Consider `COc1ccc(/C=C/C(=O)c2ccc(O)cc2O)cc1OC`, for which the Activity entry in data set [11] is on record as “Non-Toxic”. For the same molecule, the IC50 in data set [2] worked out at 6.4 µM; in data set [3] it was 7 µM.

Consider `O=C(/C=C/c1ccc(Cl)cc1Cl)c1ccccc1O`, for which, in data set [11], the Activity result is reported as “Non-Toxic”. Further, the Imax in [12] is 30%; in data set [13], 28%.

Take `COc1ccc(/C=C/C(=O)c2ccccc2O)cc1OC`: in [1], the Activity result is reported as “Non-Toxic”. The figures for the IC50 in data set [2] and in data set [3] were 6.4 µM and 15 µM, respectively. For the same molecule, in [10], the “Ratio IC50” value is 2.

For the molecule `O=C(/C=C/c1ccccc1)c1ccccc1` [CHALCONE], the Activity in data set [14] is 0.6%; in data set [15] it was 5%; in data set [1], “Non-Toxic”. Besides, the values for the IC50 in data set [2] and in [3] were 13 µM and 27 µM, respectively. For the same molecule, the “Ratio IC50” value in data set [10] was 2.

As for `O=C(/C=C/c1ccccc1O)c1ccccc1O`, the Activity result in [4] is on record as “Non-Toxic”. For the same molecule, the IC50 in [2] and in data set [3] was 5.8 µM throughout.

On to `COc1ccc(/C=C/C(=O)c2ccccc2)cc1OC`, for which the Activity entry in data set [16] is “Non-Toxic”. In addition, the IC50 in [2] was 15 µM; in data set [3], 20 µM.

As to `Cc1cccc(/C=C/C(=O)c2ccccc2O)c1`, in data set [11], the Activity entry was “Non-Toxic”. For the same molecule, the IC50 in data set [2] is 2.8 µM. In addition, in data set [13], the Imax was 47%. In data set [10], the “Ratio IC50” value was 2.

Regarding `Cc1cc(C)c(/C=C/C(=O)c2ccccc2O)c(C)c1`, in data set [7], the Activity result is recorded as “Non-Toxic”. Moreover, the values for the Imax in [17] and in data set [9] were 26% and 25%, respectively.

Take `O=C(/C=C/c1ccccc1O)c1ccccc1`: the Activity result in data set [1] was “Non-Toxic”. Besides, the figures for the IC50 in [2] and in data set [3] were 6.7 µM and 5 µM, respectively.

Turning to `COc1ccccc1/C=C/C(=O)c1ccccc1O`, the Activity result in data set [18] was “Non-Toxic”. Also, the Imax in [17] is on record as 50%; in [19], 34%.

Take `O=C(/C=C/c1cccc(O)c1)c1ccccc1` [3-HYDROXY CHALCONE]: the Activity entry in [16] is recorded as “Non-Toxic”. For the same molecule, the half-maximal inhibitory concentration (IC50) in [2] worked out at 27 µM; in data set [3] it was 22.3 µM.

As to `COc1cc(O)c(C(=O)/C=C/c2ccc(OC)c(OC)c2)c(OC)c1`, the Activity result in [16] is “Non-Toxic”. The IC50 in [2] amounted to 78 µM; in data set [3], 74 µM.

As to `O=C(/C=C/c1ccc(O)cc1)c1ccccc1O`, in data set [1], the Activity result is “Non-Toxic”. Also, the results for the IC50 in data set [2] and in data set [3] were 1.6 µM and 1.5 µM, respectively.

`COc1cc(O)c(C(=O)/C=C/c2cc(OC)c(OC)c(OC)c2)c(OC)c1`: the Activity entry in data set [7] is reported as “Non-Toxic”. The Imax was 25% in data set [17] and 18% in data set [9].

As to `O=C(/C=C/c1ccc(O)c(O)c1)c1c(O)cc(O)cc1O` [3,4,2',4',6'-PENTAHYDROXYCHALCONE], in data set [1], the Activity result was “Non-Toxic”. For the same molecule, the IC50 in data set [2] is 4.4 µM; in data set [3], 5 µM. Also, the inhibition at 50 µM in data set [20] was 48%. In addition, the inhibition result in [21] was “Dose-dependent effect”.

As for `O=C(/C=C/c1ccc(O)cc1O)c1ccc(O)cc1O`, the Activity result in data set [11] was “Non-Toxic”. Besides, the results for the 50% inhibitory concentration (IC50) in data set [2] and in data set [3] were 2.9 µM and 3 µM, respectively.

Turning to `COc1ccc(/C=C/C(=O)c2ccc(O)cc2O)cc1`, the Activity result in [11] is listed as “Non-Toxic”. Further, the Imax in data set [12] was 46%; in data set [13], 44%.

For the molecule `O=C(/C=C/c1ccc(O)cc1O)c1ccccc1`, the Activity result in data set [4] is on record as “Non-Toxic”. In addition, the values for the IC50 in [2] and in data set [3] were 13 µM and 12 µM, respectively.

On to `O=C(/C=C/c1ccc(Cl)cc1)c1ccccc1` [4-CHLORO CHALCONE], for which, in data set [11], the Activity entry was “Non-Toxic”. Besides, the 50% inhibitory concentration (IC50) in data set [2] was 5.4 µM; in [3], 5.3 µM.

`COc1cc(/C=C/C(=O)c2ccccc2O)ccc1O`: the figures for the Activity in data set [22], in data set [23] and in [18] were 0.4%, 0.4% and “Non-Toxic”, respectively. In addition, the IC50 was 1 µM in [2] and 2 µM in [3].

For the molecule `COc1cc(/C=C/C(=O)c2ccccc2O)cc(OC)c1OC`, the Activity entry in data set [1] is “Non-Toxic”. The results for the 50% inhibitory concentration (IC50) in data set [2] and in data set [3] were 3.4 µM and 3 µM, respectively.
